Measurements: US20240366526A1, “COMPOSITIONS AND METHODS FOR MAINTAINING OR ENHANCING MICROBIAL BALANCE OF THE SKIN AND MUCOSA” (Reckitt Benckiser Health Limited, priority 2023, published 2024)

Columns and labels:
Experiment in all cases: MIC determination (EUCAST / ISO 20776 microdilution)
Format in all cases: cell-based
[1] = test system: Gardnerella vaginalis LF1; details: clinical vaginal isolate; 37° C., microaerophilic, 24 and 48 h; single substance
Excerpt: The strains used were Lactobacillus crispatus LF6 and Lactobacillus gasseri LF7), one strain of Gardnerella vaginalis LF1 and one strain of Candida albicans LF, that correspond to clinical isolates collected from women vaginal cavity. The antimicrobial activity method was based on the current standards described by EUCAST (European Committee on Antimicrobial Susceptibility Testing) and ISO 20776-1 (2006) and ISO 20776-2-(2007) for determining the minimum inhibitory concentration (MIC). Terpinen-4-ol and Carvacrol were emulsified with DMSO (up to 1% (v/v)) in culture medium to obtain a concentration corresponding to 2× higher than the testing one. Sequential dilutions (1:2) were prepared in a sterile 96 wells plate with culture medium. […]
In parallel, calibrated suspensions of microorganisms were prepared with a cell density of 1.0 on the McFarland scale (Lactobacillus spp. and Candida albicans) and 0.13 absorbance (Gardnerella vaginalis), corresponding to 1×10^8 CFU/mL for bacteria (Lactobacillus spp. and Gardnerella vaginalis) and 1×10^6 CFU/mL for yeast (Candida albicans). […]
After homogenization of the working microbial suspension with dilutions of the two ingredients, the 96-well plates were incubated according to the incubation conditions suitable for each microorganism. […] After incubation, the wells were evaluated macroscopically to check for microorganism growth. […]

[2] = test system: Lactobacillus gasseri LF7
Description: (§1) Sequential dilutions (1:2) were prepared in a sterile 96 wells plate with culture medium. All preparations were performed in aseptic conditions. For each of the ingredients tested, 8 concentrations were tested. […] De Man, Rogosa and Sharpe Broth (MRSB) media was used for growth of Lactobacillus spp., New York City III Broth ([…]) media and Roswell Park Memorial Institute 1640 (RPMI-1640) media was used respectively to grow Gardnerella vaginalis and Candida albicans. […] After homogenization of the working microbial suspension with dilutions of the two ingredients, the 96-well plates were incubated according to the incubation conditions suitable for each microorganism. For, L. crispatus and L. gasseri, incubation was done at 37° C. for 24 and 48h in microaerophilic atmosphere. […] After incubation, the wells were evaluated macroscopically to check for microorganism growth. Turbid wells indicated the presence of microbial growth, and clear wells indicated the absence of microbial growth. The lowest concentration tested in which wells without turbidity, correspondent to the minimum inhibitory concentration (MIC). To validate the test, three negative controls (sterility control of the culture medium; study substance dilutions with culture medium; emulsifier with culture medium) and two positive controls (growth control for each microorganism using culture media and growth control for each microorganism using emulsifier with culture media) were performed.

Candida albicans LF1 = test system: Candida albicans LF1
Description: as §1

[3] = test system: Lactobacillus crispatus LF6
Description: as §1

[4] = terpinen-4-ol 2.5 μl/ml and 5 μl/ml

SMILES	MIC for Gardenella vaginalis LF1 [1] [μl/ml]	effect on Lactobacillus gasseri growth ([2]; carvacrol 0.31 μl/ml)	inhibition for C. albicans LF1 (Candida albicans LF1; carvacrol 0.31 μl/ml) [%]	effect on Lactobacillus crispatus growth ([3]; carvacrol 0.31 μl/ml)	effect on Lactobacillus gasseri growth [2, 4]	MIC for C. albicans LF1 (Candida albicans LF1; clinical vaginal isolate, 32.5° C., aerophilic, 24 and 48 h, single substance) [μl/ml]	effect on Lactobacillus crispatus growth [3, 4]
Cc1ccc(C(C)C)cc1O [Carvacrol, carvacrol]	0.31	unaffected	50	unaffected	–	–	–
CC1=CCC(O)(C(C)C)CC1 (centres unmarked) [Terpinen-4-ol]	2.5	–	–	–	unaffected	5	unaffected
